Results reported in patent US20240076347A1, “METHODS FOR PREVENTING FUNGAL INFECTIONS” (Cidara Therapeutics, Inc., priority 2016, published 2024).

What was measured:
Candida auris = test: Murine model of disseminated candidiasis (immunosuppressed CD-1 mice), treatment; format: in vivo; conditions: 20 mg/kg PO, 2 doses; Day 14
Protocol: Female 6-8 week old CD-1 mice were immunosuppressed with cyclophosphamide (200 mg/kg) 3 days prior to infection and 150 mg/kg 1 day post-infection. On the day of infection, mice were inoculated with 3×10^7 C. auris blastospores via the lateral tail vein. Mice were randomized into 5 groups (n=5 for colony forming units (CFU) and n=10 for survival): CD101 20 mg/kg administered by intraperitoneal (IP) injection, fluconazole 20 mg/kg administered per os (PO), amphotericin B 0.3 mg/kg IP, and a vehicle control. Treatments were administered 2 hours post-infection (Day 1) and again on Day 4 of the study for a total of 2 doses. Mice were monitored daily and a survival curve was generated. CFU groups were sacrificed on Day 8 of the study. One kidney was removed from each mouse, homogenized, plated on potato dextrose agar (PDA), and incubated at 35° C. for 2 days to determine CFU. The remaining survival mice were monitored until the end of the study (Day 14).

[1] = tested on: C. albicans SC-5314 biofilms; test: Adhesion phase biofilms (prevention) on silicone elastomer discs; format: cell-based, Candida albicans; conditions: 1 and 4 μg/ml
Protocol: (§1) Biofilms were formed on silicone elastomer (SE) discs using a catheter-associated-biofilm model (Chandra et al., Nature Protocols 3:1909, 2008; Chandra et al., J. […] Chandra et al., J. Dental Research 80: 903, 2001). For evaluation of activity against adhesion phase biofilms (prevention), Candida cells were adhered to catheter discs for 90 min. […] Discs incubated with fluconazole or media alone were used as controls in all experiments. […] Chandra et al., J. […] Chandra et al., J. Dental Research 80: 903, 2001). Following incubation with drugs, discs were transferred to fresh plates containing phosphate buffered saline with XTT and menadione, incubated for 3 h at 37° C. and optical density was read at 492 nm. Separate batches of biofilms were stained with fluorescent dyes (FUN1™, CONA) and observed under Confocal Scanning Laser Microscope (CSLM) to evaluate biofilm architecture and thickness (Chandra et al., Nature Protocols 3:1909, 2008; Chandra et al., J. […] Statistical analyses for all data were performed using GraphPad Prism 6 software. Drug treated groups were compared to control untreated groups using unpaired t-tests.

[2] = tested on: C. albicans SC-5314 biofilms; test: Mature phase biofilms (treatment) on silicone elastomer discs; format: cell-based, Candida albicans; conditions: 1 and 4 μg/ml
Protocol: as §1

C. albicans strain 529L = test: Rat model of vulvovaginal candidiasis, vaginal lavage and tissue burden; format: in vivo, Candida albicans
Protocol: Animal Strain. Wistar rats were supplied by Harlan Laboratories UK and were specific pathogen free. Rats weighed […] at the time of surgery. Ovariectomies were performed. Rats were allowed 4-7 days recovery before transportation to the facility where the experiment was to be performed. Following arrival, rats were allowed at least 4 days acclimatization before start of the experiment. Rats weighed 100-120 g at the time of ovariectomy and were about 300 g at start of the experiment.
Pre-conditioning. Female Wistar rats underwent ovariectomy at least 10 days prior to the study commencing. They were further pre-conditioned by treatment with 5 mg/kg 17-β-estradiol administered subcutaneously (SC) every other day on Days −7, −5, −3 and −1 prior to infection with C. albicans strain 529. Estradiol treatment continued every other day throughout the study to 7 days post-infection.
Yeast Isolate. Candida albicans strain 529L was used in this chronic rat vaginal infection model.
Infection. Yeast strains were inoculated aerobically onto Sabouraud dextrose agar media (SAB) containing 0.05 mg/mL chloramphenicol and incubated at 30° C. for 48-72 h. 18-24 h prior to infection, Yeast Peptone Dextrose (YPD) broths were inoculated with 2-3 isolated colonies from agar plates and incubated overnight (37° C. on an orbital shaker). Broths containing C. albicans strain 529L were washed 3 times with sterile phosphate buffered saline (PBS) before dilution to the correct inoculum for infection. Cell counts were determined using a haemocytometer and confirmed by quantitative culture on Sabouraud dextrose agar.
Rats were infected with 0.1 mL by intravaginal administration under inhaled isoflurane anaesthesia using about 9.8×10^5 CFU/mL (9.8×10^4 CFU/Rat) C. albicans strain 529L
Treatment. […] The fluconazole treatment also started at 24 h post infection but was administered by the PO route at the dose volume and frequency shown in Table 7. The study design is further outlined in FIG. 19.
(§2) Reduction in weight and general loss of condition due to estradiol treatment are also typical in this rat model. Colonization with C. albicans was determined by quantitative culture of daily vaginal lavage samples. Rats were euthanized 9 days post infection and C. albicans determined by quantitative culture of vaginal tissue (including uterine horns).
Lavage samples were obtained on Days 1 (pre-treatment), 2, 3, 5, 7, and 9 days post infection by flushing rat vaginas 4 times with 0.1 mL pre-warmed sterile PBS. Following euthanasia, vaginal tissue including uterine horns was removed prior to weighing. Tissues were homogenized in 2 mL sterile PBS using a bead-beater. Vaginal wash and tissue homogenates were diluted appropriately then quantitatively cultured on to Sabouraud dextrose agar containing 0.05 mg/mL chloramphenicol and incubated at 37° C. for up to 72 h before being counted.
Statistical analysis. Data were analyzed using StatsDirect software (version 2.7.8) using the non-parametric Kruskal-Wallis test and if this was statistically significant all pairwise comparisons were analyzed (Conover-Inman).

[3] = format: in vivo, Wistar rats; conditions: rat, in vivo
Protocol: Endpoints. The rats were monitored at a frequency appropriate for their clinical condition. Rat weights were recorded at least once daily to ensure animals remained within ethical limits.
as §2

[4] = lavage Day 1 post treatment (Day 2 post infection), 20 mg/kg PO dosed once
[5] = lavage Day 1 post treatment (Day 2 post infection), 20 mg/kg PO dosed twice
[6] = lavage Day 2 post treatment (Day 3 post infection), 20 mg/kg PO dosed once
[7] = lavage Day 2 post treatment (Day 3 post infection), 20 mg/kg PO dosed twice
[8] = lavage Day 4 post treatment (Day 5 post infection), 20 mg/kg PO dosed once
[9] = lavage Day 4 post treatment (Day 5 post infection), 20 mg/kg PO dosed twice
[10] = lavage Day 6 post treatment (Day 7 post infection), 20 mg/kg PO dosed once
[11] = lavage Day 6 post treatment (Day 7 post infection), 20 mg/kg PO dosed twice
[12] = lavage Day 8 post treatment (Day 9 post infection), 20 mg/kg PO dosed once
[13] = lavage Day 8 post treatment (Day 9 post infection), 20 mg/kg PO dosed twice
[14] = terminal vaginal tissue Day +9 post infection, 20 mg/kg PO dosed once
[15] = terminal vaginal tissue Day +9 post infection, 20 mg/kg PO dosed twice
[16] = vaginal lavage Day 1 post infection, pre-treatment, 20 mg/kg PO dosed once group
[17] = vaginal lavage Day 1 post infection, pre-treatment, 20 mg/kg PO dosed twice group

OC(Cn1cncn1)(Cn1cncn1)c1ccc(F)cc1F [Fluconazole, fluconazole, reference compound]
percent survival at the end of the study (Candida auris): 0%
thickness of biofilms [1]: no effect on biofilm thickness
biofilm metabolic activity (XTT) ([1]; 24 h, P>0.05): did not inhibit biofilm formation
biofilm architecture (CSLM) [2]: did not affect Candida biofilms
thickness of biofilms [2]: had no effect
biofilm metabolic activity (XTT) ([2]; 24 h, P>0.05): neither concentrations of fluconazole (1 and 4 μg/ml) affected these biofilms
terminal vaginal tissue burden (C. albicans strain 529L; 20 mg/kg PO once or twice, all rats, Day 9): below the limit of detection
lavage burden (C. albicans strain 529L; Day 5 post infection, 20 mg/kg PO once or twice, all rats): below the limit of detection
Group Geometric mean (C. albicans strain 529L; [4]): 1.50 × 10^2 CFU/mL
Log Group Geometric mean (C. albicans strain 529L; [4]): 2.18 CFU/mL
Log reduction from vehicle control (C. albicans strain 529L; [4]): 1.52 CFU/mL
Group Geometric mean (C. albicans strain 529L; [5]): 1.27 × 10^2 CFU/mL
Log Group Geometric mean (C. albicans strain 529L; [5]): 2.10 CFU/mL
Log reduction from vehicle control (C. albicans strain 529L; [5]): 1.59 CFU/mL
burden vs vehicle, statistics (C. albicans strain 529L; lavage Day 2 post infection): neither the CD101 nor fluconazole burden was statistically different from the vehicle burden
reduction in burden (C. albicans strain 529L; lavage Day 2 post infection, fluconazole 20 mg/kg PO): about 1.6 Log10 CFU/mL
Group Geometric mean (C. albicans strain 529L; [6]): 1.00 CFU/mL
Log Group Geometric mean (C. albicans strain 529L; [6]): 0.00 CFU/mL
Log reduction from vehicle control (C. albicans strain 529L; [6]): 3.57 CFU/mL
Group Geometric mean (C. albicans strain 529L; [7]): 1.49 CFU/mL
Log Group Geometric mean (C. albicans strain 529L; [7]): 0.17 CFU/mL
Log reduction from vehicle control (C. albicans strain 529L; [7]): 3.40 CFU/mL
rats having burden below the limit of detection (C. albicans strain 529L; lavage Day 3 post infection, 20 mg/kg PO once or twice): 11/12
burden vs vehicle, statistics (C. albicans strain 529L; lavage Day 3 post infection, all treatments): statistically different from the vehicle treatments
Group Geometric mean (C. albicans strain 529L; [8]): 1.00 CFU/mL
Log Group Geometric mean (C. albicans strain 529L; [8]): 0.00 CFU/mL
Log reduction from vehicle control (C. albicans strain 529L; [8]): 4.22 CFU/mL
Group Geometric mean (C. albicans strain 529L; [9]): 1.00 CFU/mL
Log Group Geometric mean (C. albicans strain 529L; [9]): 0.00 CFU/mL
Log reduction from vehicle control (C. albicans strain 529L; [9]): 4.22 CFU/mL
Group Geometric mean (C. albicans strain 529L; [10]): 1.00 CFU/mL
Log Group Geometric mean (C. albicans strain 529L; [10]): 0.00 CFU/mL
Log reduction from vehicle control (C. albicans strain 529L; [10]): 4.18 CFU/mL
Group Geometric mean (C. albicans strain 529L; [11]): 1.00 CFU/mL
Log Group Geometric mean (C. albicans strain 529L; [11]): 0.00 CFU/mL
Log reduction from vehicle control (C. albicans strain 529L; [11]): 4.18 CFU/mL
Group Geometric mean (C. albicans strain 529L; [12]): 1.00 CFU/mL
Log Group Geometric mean (C. albicans strain 529L; [12]): 0.00 CFU/mL
Log reduction from vehicle control (C. albicans strain 529L; [12]): 4.30 CFU/mL
Group Geometric mean (C. albicans strain 529L; [13]): 1.00 CFU/mL
Log Group Geometric mean (C. albicans strain 529L; [13]): 0.00 CFU/mL
Log reduction from vehicle control (C. albicans strain 529L; [13]): 4.30 CFU/mL
Group Geometric mean (C. albicans strain 529L; [14]): 1.00 CFU/g
Log Group Geometric mean (C. albicans strain 529L; [14]): 0.00 CFU/g
Log reduction from vehicle control (C. albicans strain 529L; [14]): 5.49 CFU/g
Group Geometric mean (C. albicans strain 529L; [15]): 1.00 CFU/g
Log Group Geometric mean (C. albicans strain 529L; [15]): 0.00 CFU/g
Log reduction from vehicle control (C. albicans strain 529L; [15]): 5.49 CFU/g
Group Geometric mean (C. albicans strain 529L; [16]): 3.16 × 10^3 CFU/mL
Log Group Geometric mean (C. albicans strain 529L; [16]): 3.50 CFU/mL
Log reduction from vehicle control (C. albicans strain 529L; [16]): −1.06 CFU/mL
Group Geometric mean (C. albicans strain 529L; [17]): 1.04 × 10^3 CFU/mL
Log Group Geometric mean (C. albicans strain 529L; [17]): 3.02 CFU/mL
Log reduction from vehicle control (C. albicans strain 529L; [17]): −0.58 CFU/mL
tolerability [3]: well tolerated with no adverse events observed
